The assay deals with T1, PDE4B (human recombinant) enzyme (Homo sapiens, UniProt Q07343).
T1 construct: made in house; host or cells: Saccharomyces cerevisiae strain GL62 (PDE-deficient yeast), as described in WO 94/20079
In words: Inhibition of PDE4B catalytic activity, IMAP fluorescence polarisation (FP) assay. The class given is biochemical. The note with it: inhibition of catalytic activity at PDE4B (human recombinant); FP assay described above or similar. The source says: Human recombinant PDE4B, in particular the 2B splice variant thereof (HSPDE4B2B), is disclosed in WO 94/20079 and also in M. M. McLaughlin et al., “A low Km, rolipram-sensitive, cAMP-specific phosphodiesterase from human brain: cloning and expression of cDNA, biochemical characterisation of recombinant protein, and tissue distribution of mRNA”, J. Biol. Chem., 1993, 268, 6470-6476. For example, in Example 1 of WO 94/20079, human recombinant PDE4B is described as being expressed in the PDE-deficient yeast Saccharomyces cerevisiae strain GL62, e.g. after induction by addition of 150 uM CuSO4, and 100,000×g supernatant fractions of yeast cell lysates are described for use in the harvesting of PDE4B enzyme.
The ability of compounds to inhibit PDE catalytic activity was determined by IMAP Fluorescence Polarisation (FP) assay (Molecular Devices Ltd code: R8062) in 384-well format. […]
For the PDE3, PDE4B and PDE4D assays Fluorescein adenosine 3′,5′-cyclic phosphate (Molecular Devices Ltd code: R7091) was added to give ˜40 nM final concentration. […] The FP ratio of parallel to perpendicular light was measured using an Analyst™ plate reader (from Molecular Devices Ltd). […] Curves were analysed using ActivityBase and XLfit (ID Business Solutions Limited). Results were expressed as pIC50 values.

pIC50: −log10 of the molar value.

T1 sequence (Q07343 1-564 isoform Q07343-2): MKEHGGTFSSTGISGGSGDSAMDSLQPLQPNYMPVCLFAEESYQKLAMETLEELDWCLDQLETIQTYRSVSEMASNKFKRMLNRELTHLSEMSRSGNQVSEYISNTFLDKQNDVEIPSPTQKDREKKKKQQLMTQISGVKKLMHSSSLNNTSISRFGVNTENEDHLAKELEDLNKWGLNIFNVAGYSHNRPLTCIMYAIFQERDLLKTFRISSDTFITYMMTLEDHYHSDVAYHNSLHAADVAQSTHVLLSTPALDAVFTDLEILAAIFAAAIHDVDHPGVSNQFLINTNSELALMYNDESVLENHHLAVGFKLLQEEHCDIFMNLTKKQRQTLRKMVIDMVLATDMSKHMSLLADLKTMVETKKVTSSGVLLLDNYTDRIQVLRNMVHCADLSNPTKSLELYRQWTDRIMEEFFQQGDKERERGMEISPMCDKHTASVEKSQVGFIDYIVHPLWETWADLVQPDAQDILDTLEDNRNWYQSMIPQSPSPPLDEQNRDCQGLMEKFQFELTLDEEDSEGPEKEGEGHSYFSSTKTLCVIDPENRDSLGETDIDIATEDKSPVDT

As to `Cc1cc(S(C)(=O)=O)cc2c(Nc3cccc(C#N)c3)c(C(N)=O)nnc12` [Example 1, 4-[(3-Cyanophenyl)amino]-8-methyl-6-(methylsulfonyl)-3-cinnolinecarboxamide], the pIC50 was ~10.00.

One may read the pIC50 as the negative decadic logarithm of the IC50, by convention in mol/L.

The values are drawn from US20080280911A1, “Cinnoline Compounds as Inhibitors of Phosphodiesterase Type IV (Pde4)” (Glaxo Group Limited, priority 2005, published 2008).
